Read-outs that look alike come from different tables or passages of the source.
What was measured:
[1] = test system: OCI-AML-4 (MLL-ENL) cells; assay: Example 7 primary screen: 300 nM EPZ-5676 pre-treatment, second compound 72 h, ATPLite, GI100 shift; type: cell-based; details: OCI-AML-4 (MLL-ENL); 300 nM EPZ-5676 pre-treatment vs DMSO
Experimental: (§1) Cells were split using EPZ-5676 or DMSO containing growth media and further incubated for an additional 3-day pre-treatment time. Cells were finally seeded in growth media containing EPZ-5676 or DMSO in 384-well plates at 500 cell/well density. Cells were then equilibrated in incubators for 24 hours before treatment with a second compound. Treated assay plates were incubated with a second compound for 72 hours. After this time, plates were developed for endpoint analysis using ATPLite to measure ATP content, which is used as an indicator of cell viability.
(§2) “N/D” means the GI100 of the second compound could not be determined for both conditions and “-” means not tested.
(§3) Growth Inhibition (GI) as a measure of cell viability: The cell viability of vehicle was measured at the time of dosing the second agent (T0) and after seventy-two hours (T72). A GI reading of 0% represents no growth inhibition—cells treated with test compound as compared to T72 vehicle signals were measured. […] A GI 200% represents complete death of all cells in the culture well. Compounds reaching an activity plateau of GI 200% are considered cytotoxic. GI is calculated by applying the following test and equation: […]

[2] = test system: RS4-11 (MLL-AF4) cells; assay: Example 7 retest: EPZ-5676 pre-treatment, second compound 72 h, Cell Titer Glo, growth inhibition; type: cell-based; design: GI100: unit not given here; details: for GI50: Homo sapiens
Experimental: (§4) Cells were then treated with a second compound for 72 hours. After this time, plates were developed for endpoint analysis using Cell Titer Glo to measure ATP content, which is used as an indicator of cell viability.
as §2
as §3, with “(T72).” for “(T72). A GI reading of 0% represents no growth inhibition—cells treated with test compound as compared to T72 vehicle signals were measured.”

[3] = test system: ML-2 (MLL-AF6) cells; assay: as above; type: cell-based; design: GI100: unit not given here
Experimental: as §4, §2
as §3, with “(T72).” for “(T72). A GI reading of 0% represents no growth inhibition—cells treated with test compound as compared to T72 vehicle signals were measured.”

[4] = test system: SKM-1 (non-MLLr) cells; assay: Example 7 primary screen: 300 nM EPZ-5676 pre-treatment, second compound 72 h, ATPLite, GI100 shift; type: cell-based, human; details: SKM-1 (non-MLLr); 300 nM EPZ-5676 pre-treatment vs DMSO
Experimental: as §1, §2, §3

[5] = test system: MOLM-13 (MLL-AF9) cells; assay: as above; type: cell-based, human; details: MOLM-13 (MLL-AF9); 300 nM EPZ-5676 pre-treatment vs DMSO
Experimental: as §1, §2, §3

[6] = test system: OCI-AML-4 (MLL-ENL) cells; assay: Example 7 retest: EPZ-5676 pre-treatment, second compound 72 h, Cell Titer Glo, growth inhibition; type: cell-based; details: for Combination result with EPZ-5676, Retest: 300 nM EPZ-5676 pre-treatment vs DMSO
Experimental: as §4, §2
as §3, with “(T72).” for “(T72). A GI reading of 0% represents no growth inhibition—cells treated with test compound as compared to T72 vehicle signals were measured.”

[7] = test system: SKM-1 (non-MLLr) cells; assay: as above; type: cell-based, human; design: GI100: unit not given here; details: for Combination result with EPZ-5676, Retest: 300 nM EPZ-5676 pre-treatment vs DMSO
Experimental: as §4, §2
as §3, with “(T72).” for “(T72). A GI reading of 0% represents no growth inhibition—cells treated with test compound as compared to T72 vehicle signals were measured.”

[8] = test system: MOLM-13 (MLL-AF9) cells; assay: as above; type: cell-based, human; design: GI100: unit not given here; details: for GI50: Homo sapiens; for Combination result with EPZ-5676, Retest: 150 nM EPZ-5676 pre-treatment vs DMSO
Experimental: as §4, §2
as §3, with “(T72).” for “(T72). A GI reading of 0% represents no growth inhibition—cells treated with test compound as compared to T72 vehicle signals were measured.”

[9] = test system: THP-1 (MLL-AF9) cells; assay: as above; type: cell-based; design: GI100: unit not given here; details: NRAS G12D
Experimental: as §1, with “96-well plates.” for “384-well plates at 500 cell/well density.”, “treated” for “equilibrated in incubators for 24 hours before treatment with a second compound. Treated assay plates were incubated”, “Cell Titer Glo” for “ATPLite”
as §2, §3

[10] = RS4-11 (MLL-AF4), Ras mutation status: None known, second compound, 72 h
[11] = ML-2 (MLL-AF6), KRAS A146T (het), second compound, 72 h
[12] = OCI-AML-4 (MLL-ENL), NRAS Q61R (het)
[13] = OCI-AML-4 (MLL-ENL), NRAS Q61R (het), second compound, 72 h
[14] = SKM-1 (non-MLLr), KRAS K117N (homo)
[15] = SKM-1 (non-MLLr), KRAS K117N (homo), second compound, 72 h
[16] = MOLM-13 (MLL-AF9), Ras mutation status: None known, second compound, 72 h
[17] = MOLM-13 (MLL-AF9), Ras mutation status: None known

GI50 [2, 10]	GI50 [6, 13]	GI50 [7, 15]	GI50 [8, 16]	GI50 [9]	SMILES	Combination result with EPZ-5676, Primary screen [1]	GI50 [3, 11]	Combination result with EPZ-5676, Primary screen [4]	Combination result with EPZ-5676, Primary screen [5]	Combination result with EPZ-5676, Retest ([6]; OCI-AML-4 (MLL-ENL))	Result (combination with EPZ-5676) [6, 12]	Combination result with EPZ-5676, Retest ([7]; SKM-1 (non-MLLr))	Result (combination with EPZ-5676) [7, 14]	Combination result with EPZ-5676, Retest ([8]; MOLM-13 (MLL-AF9))	Result (combination with EPZ-5676) [8, 17]	also measured
> 10000 nM	2 nM	1 nM	10 nM	2 nM	CC(=O)Nc1cccc(-n2c(=O)n(C3CC3)c(=O)c3c(Nc4ccc(I)cc4F)n(C)c(=O)c(C)c32)c1 [Trametinib]	Synergy (considered synergistic if the GI100 (Growth inhibition 100) value of the second compound decreased by 2-fold or more when EPZ-5676 was added as compared to the DMSO control)	1 nM	Synergy (considered synergistic if the GI100 (Growth inhibition 100) value of the second compound decreased by 2-fold or more when EPZ-5676 was added as compared to the DMSO control)	Synergy (considered synergistic if the GI100 (Growth inhibition 100) value of the second compound decreased by 2-fold or more when EPZ-5676 was added as compared to the DMSO control)	Synergy (considered synergistic if the GI100 (Growth inhibition 100) value of the second compound decreased by 2-fold or more when EPZ-5676 was added as compared to the DMSO control)	Synergy (considered synergistic if the GI100 (Growth inhibition 100) value of the second compound decreased by 2-fold or more when EPZ-5676 was added as compared to the DMSO control)	Synergy (considered synergistic if the GI100 (Growth inhibition 100) value of the second compound decreased by 2-fold or more when EPZ-5676 was added as compared to the DMSO control)	Synergy (considered synergistic if the GI100 (Growth inhibition 100) value of the second compound decreased by 2-fold or more when EPZ-5676 was added as compared to the DMSO control)	Synergy (considered synergistic if the GI100 (Growth inhibition 100) value of the second compound decreased by 2-fold or more when EPZ-5676 was added as compared to the DMSO control)	Synergy (considered synergistic if the GI100 (Growth inhibition 100) value of the second compound decreased by 2-fold or more when EPZ-5676 was added as compared to the DMSO control)	GI100 [2]: >10; GI100 [3]: 0.001; Result (combination with EPZ-5676) ([3]; ML-2 (MLL-AF6), KRAS A146T (het)): Synergy (considered synergistic if the GI100 (Growth inhibition 100) value of the second compound decreased by 2-fold or more when EPZ-5676 was added as compared to the DMSO control); GI100 [6]: 0.009; GI100 [7]: 0.004; GI100 [8]: 0.03
> 10000 nM	116 nM	20 nM	1250 nM	160 nM	Cn1cnc2c(F)c(Nc3ccc(Br)cc3Cl)c(C(=O)NOCCO)cc21 [Selumetinib (AZD6244), Selumetinib]	Synergy (considered synergistic if the GI100 (Growth inhibition 100) value of the second compound decreased by 2-fold or more when EPZ-5676 was added as compared to the DMSO control)	40 nM	Synergy (considered synergistic if the GI100 (Growth inhibition 100) value of the second compound decreased by 2-fold or more when EPZ-5676 was added as compared to the DMSO control)	Synergy (considered synergistic if the GI100 (Growth inhibition 100) value of the second compound decreased by 2-fold or more when EPZ-5676 was added as compared to the DMSO control)	Synergy (considered synergistic if the GI100 (Growth inhibition 100) value of the second compound decreased by 2-fold or more when EPZ-5676 was added as compared to the DMSO control)	Synergy (considered synergistic if the GI100 (Growth inhibition 100) value of the second compound decreased by 2-fold or more when EPZ-5676 was added as compared to the DMSO control)	Synergy (considered synergistic if the GI100 (Growth inhibition 100) value of the second compound decreased by 2-fold or more when EPZ-5676 was added as compared to the DMSO control)	Synergy (considered synergistic if the GI100 (Growth inhibition 100) value of the second compound decreased by 2-fold or more when EPZ-5676 was added as compared to the DMSO control)	Synergy (considered synergistic if the GI100 (Growth inhibition 100) value of the second compound decreased by 2-fold or more when EPZ-5676 was added as compared to the DMSO control)	Synergy (considered synergistic if the GI100 (Growth inhibition 100) value of the second compound decreased by 2-fold or more when EPZ-5676 was added as compared to the DMSO control)	GI100 [2, 10]: >10; GI100 [3, 11]: 0.93; GI100 [6, 13]: 3.169; GI100 [7, 15]: 0.12; GI100 [8, 16]: 7.28; GI100 [9]: >10

— US20190083521A1, “COMBINATION THERAPY FOR TREATING CANCER” (Epizyme, Inc., priority 2014, published 2019)
